Measurements published in patent EP4810494A1, “HPK1 DEGRADATION AGENT AND USE THEREOF IN FIELD OF MEDICINE” (Haisco Pharmaceutical Group Co., Ltd., priority 2023, dated 2025).
Structures can show the parent of a compound that is named as a salt.

Assays:
HPK1 kinase [1] = target: T1, HPK1 kinase (Homo sapiens, UniProt Q92918); test: HPK1 kinase assay (Km concentration ATP); type: biochemical; conditions: for IC50: ATP at Km concentration (working concentration: 9 µM); for inhibitory activity against HPK1 kinase (in words): Km concentration ATP, conclusion
T1 construct: purchased Carna 07-410
T1 sequence (Q92918 1-346 limits assumed): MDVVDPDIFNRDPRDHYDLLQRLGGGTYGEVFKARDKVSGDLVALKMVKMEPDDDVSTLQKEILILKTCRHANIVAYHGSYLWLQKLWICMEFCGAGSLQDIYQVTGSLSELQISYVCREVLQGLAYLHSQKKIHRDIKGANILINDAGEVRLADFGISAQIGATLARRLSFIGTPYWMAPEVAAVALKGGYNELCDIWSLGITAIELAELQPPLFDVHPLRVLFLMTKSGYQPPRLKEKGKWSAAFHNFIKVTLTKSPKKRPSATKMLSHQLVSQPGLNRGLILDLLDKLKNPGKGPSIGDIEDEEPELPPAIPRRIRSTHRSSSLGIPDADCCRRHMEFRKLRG
Method: Test example 3: HPK1 kinase assay (Km concentration ATP)
(§1) The kinase HPK1 (Carna, Cat.No 07-410) was prepared into 2× kinase solution using 1× kinase buffer. The substrate Fluorescein-PKC (Invitrogen, Cat. No. PV3506) and ATP (working concentration: 9 µM) (Sigma, Cat. No. 2383-5G) were prepared into 2× substrate solution using 1×kinase buffer. The detection reagent was diluted to 2-fold the final concentration using an antibody diluent. 100 nL of compounds at different concentrations and 5 µL of kinase solution were added to each well of a 384-well plate, and the mixture was incubated at room temperature for 10 minutes. After the incubation was completed, 5 µL of substrate solution was added to each well, and the resulting mixture was reacted at room temperature for 90 minutes. After the reaction was completed, 10 µL of detection reagent was added to each well to terminate the reaction, and the mixture was incubated at room temperature for 60 minutes. Fluorescence readings were detected using an Envision instrument with excitation at 320 nm and emission at 520 nm and 495 nm. IC50 value was calculated using XLFit excel add-in version 5.4.0.8 software. The calculation formula of the inhibition rate was shown in formula 3-1, where max is the Ratio of the DMSO control, min is the Ratio of the negative control without enzyme, and sample is the Ratio of the compound. Ratio = RFU520nm /RFU495nm [formula] Inhibition% = (max−sample)/(max−min) × 100% [formula] Table 3-1 Inhibitory activity of test compounds against HPK1 kinase

[2] = Pharmacokinetic test in mice; type: in vivo, ICR mice; conditions: mouse, plasma, po, i. g.
Method: Test example 6: Pharmacokinetic test in mice
Experimental objective: In this experiment, a single dose of test substances was administered to ICR mice intravenously and intragastrically, the concentrations of the test compounds in plasma of mice were measured, and the pharmacokinetic characteristics and bioavailability of the test compounds in mice were evaluated.
Experimental animals: Male ICR mice, 20-35 g, purchased from Chengdu Dossy Experimental Animals Co., Ltd. (SCXK (CHUAN) 2020-030).
Experimental method: On the day of the experiment, the ICR mice were randomly grouped according to their body weights. The animals were fasted but with water available overnight before the administration, and fed 4 h after the administration.
Sampling: Blood was taken from the orbits of the mice at specified time points, and placed in an EDTAK2 centrifuge tube. Centrifugation was performed at 5000 rpm at 4°C for 10 min, and the plasma was collected.
Time points for plasma collection in G1 and G1-2 groups: 0, 5 min, 15 min, 30 min, 1 h, 2 h, 4 h, 7 h, and 24 h.
Time points for plasma collection in G2 and G2-2 groups: 0, 5 min, 15 min, 30 min, 1 h, 2 h, 4 h, 7 h, and 24 h.
Before analysis and detection, all the samples were stored at -60°C or lower. The samples were analysed quantitatively by LC-MS/MS. Table 6-1 PK data of test compound drug in mice

HPK1 protein = target: T2, HPK1 protein (Homo sapiens, UniProt Q92918); test: Detection of HPK1 protein expression level in Jurkat cells (24 h); type: cell-based; conditions: 24 hours incubation
T2 construct: host or cells: Jurkat cells
T2 sequence (Q92918 whole entry): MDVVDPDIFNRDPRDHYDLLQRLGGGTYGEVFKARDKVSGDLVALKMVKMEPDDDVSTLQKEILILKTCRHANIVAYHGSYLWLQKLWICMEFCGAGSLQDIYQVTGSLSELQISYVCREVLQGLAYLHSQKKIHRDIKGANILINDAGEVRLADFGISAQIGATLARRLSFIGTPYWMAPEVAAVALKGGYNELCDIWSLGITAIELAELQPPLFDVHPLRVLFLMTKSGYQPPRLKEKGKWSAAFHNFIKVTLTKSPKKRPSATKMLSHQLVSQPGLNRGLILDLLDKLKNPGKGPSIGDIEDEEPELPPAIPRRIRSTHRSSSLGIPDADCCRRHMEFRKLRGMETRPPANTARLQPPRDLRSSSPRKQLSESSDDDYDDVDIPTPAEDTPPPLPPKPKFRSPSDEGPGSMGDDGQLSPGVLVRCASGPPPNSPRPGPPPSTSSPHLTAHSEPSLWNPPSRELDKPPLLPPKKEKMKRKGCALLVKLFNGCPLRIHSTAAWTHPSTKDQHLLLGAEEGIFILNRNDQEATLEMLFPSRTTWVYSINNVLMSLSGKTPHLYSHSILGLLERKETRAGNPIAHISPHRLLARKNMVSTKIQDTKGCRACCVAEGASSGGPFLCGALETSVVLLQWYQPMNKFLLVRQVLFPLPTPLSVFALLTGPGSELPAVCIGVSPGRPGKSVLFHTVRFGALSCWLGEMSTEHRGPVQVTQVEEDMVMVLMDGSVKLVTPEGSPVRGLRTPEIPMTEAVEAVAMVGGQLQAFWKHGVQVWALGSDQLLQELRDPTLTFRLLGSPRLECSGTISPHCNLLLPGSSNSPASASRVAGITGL
Method: Test example 4: Detection of HPK1 protein expression level in Jurkat cells (24 h)
Jurkat cells from ATCC were placed in a RPMI-1640 complete medium (supplemented with 10% FBS and 1% penicillin-streptomycin solution) and cultured at 37°C and 5% CO2. The cells in the logarithmic growth phase were collected, the cell density was adjusted to 5 × 10^5 cells/well with the culture medium, and the cells were added to a 6-well cell culture plate at a volume of 1 mL/well. The compound to be tested was prepared to 2-fold the final concentration, 1 mL of the compounds at different concentrations were added to administration wells, a medium containing 0.2% DMSO was added to control wells, and the plate was incubated at 37°C and 5% CO2 for 24 hours. The cells were collected into a 1.5 mL centrifuge tube, 30 µL of RIPA lysis buffer (containing 1X protease inhibitor cocktail) was added, and the cells were lysed on ice for 15 minutes and centrifuged at 12000 rpm/min at 4°C for 10 minutes. The supernatant was collected and the protein content was determined using the BCA method. The protein sample to be tested was diluted to 0.2 mg/mL, HPK1 was detected using a fully automated protein expression quantitative analyser (ProteinSimple), and the internal reference protein was β-actin (all antibodies were from CST). The software (Compass for SW) of the fully automated protein expression quantitative analyser was used to process the raw data and calculate the peak area after internal reference normalisation and the HPK1 degradation rate relative to the control group. The HPK1 degradation rate was calculated according to formula 4-1, where Aadministration well is the relative peak area of the administration group after internal reference normalisation, and Acontrol well is the relative peak area of the vehicle control group after internal reference normalisation. DC50 values were calculated using a four-parameter non-linear fitting model in Graphpad 8.3.0 software. HPK1_degradation % = 100−(Aadministration well/Acontrol well×100%) [formula] Table 4-1 Degradation activity of test compounds against HPK1 protein in Jurkat cells (24 h)

HPK1 kinase [3] = target: T1, HPK1 kinase; test: HPK1 kinase assay (1 mM ATP); type: biochemical
Method: Test example 5: HPK1 kinase assay (1 mM ATP)
as §1, with “1 mM)” for “9 µM)”, “5-1, wherein” for “3-1, where”, “5-1” for “3-1”

[4] = system: IL-2 secretion by T cells; test: IL-2 detection assay in cells (ELISA, pan-T cells isolated from PBMCs); type: cell-based; conditions: IL-2, CD3 antibody-coated plate, 24 hours; for Maximum activation fold: maximum activation rate/control group
Method: 9. IL-2 detection assay in cells
Activating effect of compounds on IL-2 secretion by T cells was evaluated using the ELISA method. Frozen PBMCs were thawed, and pan-T cells were isolated and purified using a T cell sorting kit (Stemcell, 17951). The cells were resuspended in 1640 complete medium and incubated in a 37°C&5%CO2 incubator overnight. A 96-well plate coated with an anti-human CD3 antibody (Thermo, 16-0037-38) at a final concentration of 5 µg/mL was incubated at 37°C for 2 h. The overnight-cultured cells were collected by centrifugation, the supernatant was discarded, and the cells were resuspended in 1640 complete medium, and seeded in the CD3 antibody-coated 96-well plate at a density of 10^5cells/well. The compounds at different concentrations were added, and the mixture was incubated in a 37°C&5%CO2 incubator for 24 hours. After the incubation was completed, the resulting mixture was centrifuged at 1000 rpm for 1 minute to collect the supernatant, and IL-2 was detected according to the ELISA instructions. DMSO without compounds was used as the control group to calculate the activation rate of the compounds, and prism was used to fit the activation curve. Maximum activation fold = maximum activation rate/control group. Table 9-1 Results of IL-2 activation by test compounds

[5] = Pharmacokinetic test in rats; type: in vivo, SD rats; conditions: rat, plasma
Method: Test example 7: Pharmacokinetic test in rats
Experimental animals: Male SD rats, 180-200 g, purchased from Chengdu Dossy Experimental Animals Co., Ltd. with the laboratory animal production license number of SCXK (CHUAN) 2020-030.
Experimental design: on the day of the experiment, the SD rats were randomly grouped according to their body weights. The animals were fasted but with water available overnight before the administration, and fed 4 h after the administration.
Vehicle for intragastric administration: 5% Solutol+5% TPGS+30% PEG400+60% (20% SBE-β-CD)
Blood was taken from the orbits of the […] at specified time points, and placed in an EDTAK2 centrifuge tube. Centrifugation was performed at 5000 rpm for 10 min, and the plasma was collected.
Blood sampling time points for the intravenous administration group were: 0, 5 min, 15 min, 30 min, 1 h, 2 h, 4 h, 6 h, 8 h and 24 h; blood sampling time points for the intragastric administration group were: 0, 5 min, 15 min, 30 min, 1 h, 2 h, 4 h, 6 h, 8 h and 24 h. Before analysis and detection, all the samples were stored at - 60°C or lower. The samples were analysed quantitatively by LC-MS/MS. Table 7-1 PK data of test compound drug in rats

| SMILES | AUC ([2]; 10 mg/kg) [ng·h/mL] | Cmax ([2]; 10 mg/kg) [ng/mL] | half-life ([2]; 10 mg/kg) [min] | DC50 (HPK1 protein) [nM] | IC50 (HPK1 kinase [3]) [nM] | Activation fold at 100 nM concentration [4] | Maximum activation fold [4] | further results |
| --- | --- | --- | --- | --- | --- | --- | --- | --- |
| O=C1CCC(c2ccc(N3CCN(CC4CCN(c5ccc(Nc6ccc(-c7cnc8cc(F)ccn78)c7c6C(=O)NC7)nc5)CC4)CC3)cc2F)C(=O)N1 (racemic) [Trifluoroacetic acid salt of compound 1] | 14700 | 1070 | 404 | < 20 |  |  |  | IC50 (HPK1 kinase [1]): < 10 nM; inhibitory activity against HPK1 kinase (in words) (HPK1 kinase [1]): good inhibitory activity |
| O=C1CCC(c2cc3c(cc2F)N2CCN(CC4CCN(c5ccc(Nc6ccc(-c7cnc8cc(F)ccn78)c7c6C(=O)NC7)nc5)CC4)C[C@H]2CC3)C(=O)N1 (stereo partly drawn) [Trifluoroacetic acid salt of compound 3] |  |  |  | < 20 |  |  |  | IC50 (HPK1 kinase [1]): < 10 nM; inhibitory activity against HPK1 kinase (in words) (HPK1 kinase [1]): good inhibitory activity |
| O=C1CCN(c2cc3c(cc2F)N2CCN(C4CC5(CCN(c6ccc(Nc7ccc(-c8cnc9cc(F)ccn89)c8c7C(=O)NC8)nc6)CC5)C4)C[C@H]2CC3)C(=O)N1 [Trifluoroacetic acid salt of compound 19] | 50500 | 3700 | 401 | < 20 | < 50 | >10 | >10 | clearance ([5]; IV, 2.5 mg/kg): 11 mL/min/kg; half-life ([5]; IV, 2.5 mg/kg): 460 min; AUC ([5]; po, i. g., 10 mg/kg): 5860 ng·h/mL; Cmax ([5]; po, i. g., 10 mg/kg): 465 ng/mL; half-life ([5]; po, i. g., 10 mg/kg): 430 min |
| N#Cc1ccn2c(-c3ccc(Nc4ccc(N5CCC(CN6CCN7c8cc(F)c(N9CCC(=O)NC9=O)cc8CC[C@@H]7C6)CC5)cn4)c4c3CNC4=O)cnc2c1 [Trifluoroacetic acid salt of compound 31] |  |  |  | < 20 | < 50 | >10 | >10 | clearance ([5]; IV, 1 mg/kg): 5.38 mL/min/kg; half-life ([5]; IV, 1 mg/kg): 293 min; AUC ([5]; po, i. g., 5 mg/kg): 4390 ng·h/mL; Cmax ([5]; po, i. g., 5 mg/kg): 464 ng/mL; half-life ([5]; po, i. g., 5 mg/kg): 269 min; AUC ([2]; 5 mg/kg): 6500 ng·h/mL; Cmax ([2]; 5 mg/kg): 553 ng/mL; half-life ([2]; 5 mg/kg): 182 min |
| Cn1ccc2c(-c3ccc(Nc4ccc(N5CCC(CN6CCN7c8cc(F)c(N9CCC(=O)NC9=O)cc8CC[C@@H]7C6)CC5)cn4)c4c3CNC4=O)ccnc21 [Trifluoroacetic acid salt of compound 32] | 15800 | 1250 | 262 | < 20 | < 50 |  | >10 |  |
| Cn1ccc2c(-c3ccc(Nc4ccc(N5CCC(CN6CCN7c8cc(F)c(N9CCC(=O)NC9=O)cc8CC[C@H]7C6)CC5)cn4)c4c3CNC4=O)ccnc21 [Trifluoroacetic acid salt of compound 35] | 37100 | 2650 | 726 | < 20 | < 50 |  | >10 |  |
| N#Cc1ccn2c(-c3ccc(Nc4ccc(N5CCC(CN6CCN7c8cc(F)c(N9CCC(=O)NC9=O)cc8CC[C@H]7C6)CC5)cn4)c4c3CNC4=O)cnc2c1 [Trifluoroacetic acid salt of compound 39] | 25600 | 2070 | 225 | < 20 | < 50 | >10 | >10 | clearance ([5]; IV, 2.5 mg/kg): 6.58 mL/min/kg; half-life ([5]; IV, 2.5 mg/kg): 253 min; AUC ([5]; po, i. g., 10 mg/kg): 7260 ng·h/mL; Cmax ([5]; po, i. g., 10 mg/kg): 777 ng/mL; half-life ([5]; po, i. g., 10 mg/kg): 273 min |
